Literature values as cited in US9029390B2, “Oral composition containing an antiplatelet agent of the thienopyridine family in the form of free base” (CLL Pharma, priority 2008, dated 2015).

What was measured:
[1] = patients who received clopidogrel, study CAPRIE

Row | solubility in water | frequency of gastro-intestinal bleedings [1] | gastro-intestinal bleedings having required a hospitalization [1] | Compound
1 | almost null | – | – | COC(=O)[C@H](c1ccccc1Cl)N1CCc2sccc2C1 [clopidogrel free base, clopidogrel]
2 | – | 2.0% | 0.7% | COC(=O)[C@H](c1ccccc1Cl)N1CCc2sccc2C1 [clopidogrel]
